From publication PMC10132233 (Journal of Enzyme Inhibition and Medicinal Chemistry, 2023)

What was measured:
[1] = system: PC3 prostate carcinoma cell line; test: MTT cytotoxicity assay, PC3; type: cell-based; conditions: Homo sapiens, 24 h
Text: (§1) Accordingly, we aimed to investigate the cytotoxic potential of this new series against prostate carcinoma cell lines. […] The potent nanomolar cell-based activity of this series of compounds over the tested prostate carcinoma cell line could be attributed to other possible targets in addition to EGFR and HER2 receptors. The presence of the 2-nitroimidazole moiety in the chemical structure of compounds 9a–h could develop possible covalent bonds between the nitroimidazole moiety and some cellular proteins.
(§2) Prostate cancer cell lines (PC3 and 22RV1) of American Type Culture Collection (ATCC) were obtained from Korean Cell Center (KCL). PC3 and 22RV1 cell lines were cultured in Roswell Park Memorial Institute Medium (RPMI) 1640 and Dulbecco’s modified Eagle’s medium (DMEM) (GenDepot, Barker, TX) supplemented with 1% penicillin–streptomycin and 10% foetal bovine serum (FBS). The cells were maintained at 37 °C in a 5% CO2 with a 95% humid atmosphere.
(§3) To further analyse the intracellular cytotoxicity effect of the as-synthesised compounds, MTT assay was performed. Moreover, the experiments were divided into subcategories. In each group, cancer cells were first seeded in 96-well plates (4 × 10^4 cells per well) and then incubated for 24 h at 37 °C in a 5% CO2-containing atmosphere. Subsequently, the medium from the culture plate was removed, and 100 µL of RPMI media containing different concentrations of compounds (0.01, 0.005, 0.0025, 0.00125, and 0.000625 µM) were then added into the cell lines in each well and incubated for 24 h in a 5% CO2 humidified incubator at 37 °C. Afterwards, MTT solution (150 μL, 1 mg/mL) was added to each well, replacing the media-containing compounds. After 4 h of incubation, the MTT reagent was removed, and 200 μL of DMSO was then added to dissolve the formazan crystals, and colour intensity was measured at a wavelength of 540 nm using a BioTek Synergy H1 instrument (BioTek, Winooski, VT). IC50 was calculated according to the equation of Boltzmann sigmoidal concentration–response curve using Graph Pad Prism 5 (La Jolla, CA).

[2] = system: 22RV1 prostate carcinoma cell line; test: MTT cytotoxicity assay, 22RV1; type: cell-based; conditions: Homo sapiens, 24 h
Text: as §1, §2, §3

EGFR = EGFR (Homo sapiens, UniProt P00533); test: HotSpot kinase assay over EGFR (Reaction Biology); conditions: read-out: % kinase inhibition EGFR
HER2 = HER2 (Homo sapiens, UniProt P04626); test: HotSpot kinase assay over HER2 (Reaction Biology); conditions: read-out: % kinase inhibition HER2
Chain of HER2 (P04626 23-1255): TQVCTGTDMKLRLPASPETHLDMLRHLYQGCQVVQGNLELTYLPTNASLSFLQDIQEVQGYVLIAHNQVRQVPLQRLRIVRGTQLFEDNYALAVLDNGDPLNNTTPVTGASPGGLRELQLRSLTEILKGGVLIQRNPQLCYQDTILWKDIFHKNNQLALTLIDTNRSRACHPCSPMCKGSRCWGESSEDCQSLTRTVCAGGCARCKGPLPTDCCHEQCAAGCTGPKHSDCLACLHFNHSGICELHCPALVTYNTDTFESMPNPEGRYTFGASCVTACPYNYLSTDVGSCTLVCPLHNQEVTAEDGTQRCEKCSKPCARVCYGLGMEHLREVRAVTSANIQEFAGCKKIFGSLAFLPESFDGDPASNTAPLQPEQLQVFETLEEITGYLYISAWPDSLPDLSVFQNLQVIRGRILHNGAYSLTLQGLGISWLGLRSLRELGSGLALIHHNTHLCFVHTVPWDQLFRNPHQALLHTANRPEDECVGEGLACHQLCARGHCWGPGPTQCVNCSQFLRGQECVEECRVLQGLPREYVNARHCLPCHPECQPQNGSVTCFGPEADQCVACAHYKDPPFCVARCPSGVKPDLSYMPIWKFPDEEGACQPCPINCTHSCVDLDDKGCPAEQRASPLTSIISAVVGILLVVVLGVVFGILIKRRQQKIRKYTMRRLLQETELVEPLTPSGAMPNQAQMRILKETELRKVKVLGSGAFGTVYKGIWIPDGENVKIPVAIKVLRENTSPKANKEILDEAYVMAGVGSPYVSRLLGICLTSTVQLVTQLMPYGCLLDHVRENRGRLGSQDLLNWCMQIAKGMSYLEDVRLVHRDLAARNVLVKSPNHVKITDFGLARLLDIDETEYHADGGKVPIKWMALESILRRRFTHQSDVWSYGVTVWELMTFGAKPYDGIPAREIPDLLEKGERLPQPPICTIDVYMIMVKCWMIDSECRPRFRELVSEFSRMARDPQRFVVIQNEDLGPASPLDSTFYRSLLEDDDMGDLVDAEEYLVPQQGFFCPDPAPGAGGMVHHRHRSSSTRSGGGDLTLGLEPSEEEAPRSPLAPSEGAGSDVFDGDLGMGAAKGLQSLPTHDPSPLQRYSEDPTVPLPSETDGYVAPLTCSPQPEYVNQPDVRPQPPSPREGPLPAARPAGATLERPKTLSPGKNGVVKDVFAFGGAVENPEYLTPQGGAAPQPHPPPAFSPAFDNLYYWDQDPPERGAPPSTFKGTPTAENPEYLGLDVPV

Chain of EGFR (P00533 25-1210): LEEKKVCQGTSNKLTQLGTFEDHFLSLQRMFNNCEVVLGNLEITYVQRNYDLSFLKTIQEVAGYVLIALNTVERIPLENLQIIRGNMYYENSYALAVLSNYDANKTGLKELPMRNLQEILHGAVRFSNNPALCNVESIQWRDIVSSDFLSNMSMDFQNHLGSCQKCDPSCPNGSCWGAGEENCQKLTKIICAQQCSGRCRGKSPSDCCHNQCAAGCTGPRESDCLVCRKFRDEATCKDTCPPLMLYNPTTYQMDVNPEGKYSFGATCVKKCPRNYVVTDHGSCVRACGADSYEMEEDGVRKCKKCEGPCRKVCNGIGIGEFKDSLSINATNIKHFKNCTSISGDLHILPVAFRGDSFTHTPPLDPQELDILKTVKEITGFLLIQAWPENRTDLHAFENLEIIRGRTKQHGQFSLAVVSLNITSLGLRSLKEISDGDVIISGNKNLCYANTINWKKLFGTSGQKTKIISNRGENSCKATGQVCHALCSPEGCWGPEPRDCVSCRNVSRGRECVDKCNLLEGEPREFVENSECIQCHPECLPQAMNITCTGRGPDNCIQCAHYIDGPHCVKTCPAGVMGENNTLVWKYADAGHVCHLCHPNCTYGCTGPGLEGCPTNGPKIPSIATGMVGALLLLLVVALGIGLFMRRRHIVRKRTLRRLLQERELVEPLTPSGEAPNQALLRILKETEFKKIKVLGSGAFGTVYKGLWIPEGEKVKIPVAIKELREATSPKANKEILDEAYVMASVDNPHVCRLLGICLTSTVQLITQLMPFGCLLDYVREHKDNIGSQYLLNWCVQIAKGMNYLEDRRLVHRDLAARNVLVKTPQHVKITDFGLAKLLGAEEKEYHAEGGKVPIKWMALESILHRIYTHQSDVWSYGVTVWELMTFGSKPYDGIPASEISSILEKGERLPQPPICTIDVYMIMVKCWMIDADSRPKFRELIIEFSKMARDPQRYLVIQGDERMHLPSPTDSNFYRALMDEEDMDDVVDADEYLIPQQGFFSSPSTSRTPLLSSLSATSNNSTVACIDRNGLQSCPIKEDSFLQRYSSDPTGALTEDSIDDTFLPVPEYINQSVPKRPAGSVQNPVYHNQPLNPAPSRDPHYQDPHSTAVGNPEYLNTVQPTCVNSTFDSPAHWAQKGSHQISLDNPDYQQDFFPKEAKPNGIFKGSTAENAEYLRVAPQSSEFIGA

COc1cc2ncnc(Nc3ccc(Oc4ccc(Cl)c(Cl)c4)c(Cl)c3)c2cc1OCCCCn1ccnc1[N+](=O)[O-] [Compound 9b, N-(3-Chloro-4-(3,4-dichlorophenoxy)phenyl)-7-methoxy-6-(4-(2-nitro-1H-imidazol-1-yl)butoxy)quinazolin-4-amine] showed an IC50 [1] of 3.1 nM, an IC50 [2] of 2 nM and a melting point of 101 to 102 °C. The inhibition at 10 µM (EGFR) was 94.2% and the inhibition at 10 µM (HER2) was 80.3%.
COc1cc2ncnc(Nc3ccc(Oc4ccc(Cl)c(Cl)c4)c(Cl)c3)c2cc1OCCCCCn1ccnc1[N+](=O)[O-] [Compound 9c, N-(3-Chloro-4-(3,4-dichlorophenoxy)phenyl)-7-methoxy-6-((5-(2-nitro-1H-imidazol-1-yl)pentyl)oxy)quinazolin-4-amine] gave an IC50 [1] of 3.3 nM, an IC50 [2] of 1.9 nM and a melting point of 94 to 95 °C. The inhibition at 10 µM (EGFR) was 90% and the inhibition at 10 µM (HER2) was 78.6%.
In the case of COc1cc2ncnc(Nc3ccc(Oc4cccc(C(F)(F)F)c4)c(Cl)c3)c2cc1OCCCCCCn1ccnc1[N+](=O)[O-] [Compound 9h, N-(3-Chloro-4-(3-(trifluoromethyl)phenoxy)phenyl)-7-methoxy-6-((6-(2-nitro-1H-imidazol-1-yl)hexyl)oxy)quinazolin-4-amine], the IC50 [1] is reported as 5.6 nM, the IC50 [2] is reported as 1.1 nM and the melting point is reported as 84 to 85 °C. The inhibition at 10 µM (EGFR) was 96.8% and the inhibition at 10 µM (HER2) was 97%.
COc1cc2ncnc(Nc3ccc(Oc4cccc(C(F)(F)F)c4)c(Cl)c3)c2cc1OCCCn1ccnc1[N+](=O)[O-] [Compound 9e, N-(3-Chloro-4-(3-(trifluoromethyl)phenoxy)phenyl)-7-methoxy-6-(3-(2-nitro-1H-imidazol-1-yl)propoxy)quinazolin-4-amine] gave an IC50 [1] of 7.3 nM, an IC50 [2] of 0.8 nM and a melting point of 232 to 233 °C. The inhibition at 10 µM (EGFR) was 98.9% and the inhibition at 10 µM (HER2) was 81.7%.
For COc1cc2ncnc(Nc3ccc(Oc4ccc(Cl)c(Cl)c4)c(Cl)c3)c2cc1OCCCCCCn1ccnc1[N+](=O)[O-] [Compound 9d, N-(3-Chloro-4-(3,4-dichlorophenoxy)phenyl)-7-methoxy-6-((6-(2-nitro-1H-imidazol-1-yl)hexyl)oxy)quinazolin-4-amine], the IC50 [1] was 2.1 nM, the IC50 [2] was 2.8 nM and the melting point was 90 to 91 °C. The inhibition at 10 µM (EGFR) was 88.9% and the inhibition at 10 µM (HER2) was 72.1%.
With COc1cc2ncnc(Nc3ccc(Oc4ccc(Cl)c(Cl)c4)c(Cl)c3)c2cc1OCCCn1ccnc1[N+](=O)[O-] [Compound 9a, N-(3-Chloro-4-(3,4-dichlorophenoxy)phenyl)-7-methoxy-6-(3-(2-nitro-1H-imidazol-1-yl)propoxy)quinazolin-4-amine] the IC50 [1] was 6.1 nM, the IC50 [2] was 2.3 nM and the melting point was 237 to 238 °C. For the same compound, the inhibition at 10 µM (EGFR) was 89% and the inhibition at 10 µM (HER2) was 69.8%.
COc1cc2ncnc(Nc3ccc(Oc4cccc(C(F)(F)F)c4)c(Cl)c3)c2cc1OCCCCCn1ccnc1[N+](=O)[O-] [Compound 9g, N-(3-Chloro-4-(3-(trifluoromethyl)phenoxy)phenyl)-7-methoxy-6-((5-(2-nitro-1H-imidazol-1-yl)pentyl)oxy)quinazolin-4-amine] showed an IC50 [1] of 4.6 nM, an IC50 [2] of 1.3 nM and a melting point of 90 to 91 °C. For the same compound, the inhibition at 10 µM (EGFR) was 99.2% and the inhibition at 10 µM (HER2) was 96.2%.
